Test results taken from PubChem BioAssay AID2060483 (Molecular Pharmacology Branch, DTP, NCI, 2025).
“And” between values parts separate entries of the source, which are not always exact repeats. Identical values can stand only once.

System: K24384-001-R-PDC complex spheroids, viability
Experiment: Anticancer human tumor K24384-001-R-PDC patient-derived pancreatic adenocarcinoma cell line growth inhibition [GQUAD]
Conditions: for viability, T/C: stronger effect = lower value
Excerpt: DNA G-quadruplex Stabilizer Agents in Combinations in Complex Spheroids
A high-throughput screen of multi-cell type tumor spheroids was designed to identify active combinations of DNA G-quadruplex stabilizer agents and targeted small molecules. Complex spheroids include a stromal component modeled by human endothelial cells (HUVEC) and fibroblasts modeled by human mesenchymal stem cells (MSCs). The concentration ranges selected for each drug and investigational agent were based upon clinically achievable concentrations if the clinical Cmax of the agent was known.
Compounds. The drugs and investigational agents: pidnarulex (CX-5461; NSC782164), APTO-253 (NSC789042), BRACO-19 (NSC847499), peposertib (NSC802822), ceralasertib (NSC780249), elimusertib (NSC800525), camonsertib (NSC841442), AZD-1390 (NSC803789), olaparib (NSC753686), talazoparib (NSC767125), ART-558 (NSC835418), sotorasib (NSC818433), MRTX-1133 (NSC836407), SN-38 (NSC673596), topotecan (NSC609699), etoposide (NSC141540), doxorubicin (NSC123127), gemcitabine (NSC613327), 5-fluorouracil (NSC19893), paclitaxel (NSC125973), vemurafenib (NSC761431), panobinostat (NSC761190), R-306465 (JNJ-16241199; NSC773264), adavosertib (NSC754352), TP-3654 (NSC805149), carboplatin (NSC241240), KSQ-4279 (NSC840948), and staurosporine (NSC755774) were obtained from the National Cancer Institute (NCI) Developmental Therapeutics Program Chemical Repository (34). The FDA-approved anticancer drug set is available from the NCI Developmental Therapeutics Program. […] The stock solutions were prepared in dimethyl sulfoxide (DMSO, Sigma-Aldrich, St. Louis, MO, cat. D2650) at 800-fold the tested concentration and stored at -70 degrees C prior to their use. All drugs and investigational agents were tested over a range starting from a high concentration at or near the clinical Cmax and decreasing in half-log increments. If the clinical Cmax for an agent had not been determined, the highest concentration tested was 10 microM.
2.3 Cell Culture. All cells were maintained in an incubator at 37 degrees C and 5% CO2 with 95% humidity. The PDC lines were cultured according to standard operating procedures established by the NCI PDMR. All PDCs were thawed and cultured in Matrigel-coated flasks prepared with a working solution of 1X Ham's F-12 nutrient mix, without supplementation (Invitrogen, cat. 11765054), 100 U/mL penicillin-streptomycin (Invitrogen, cat. 15140122), and 2.5% Matrigel (Corning Inc., cat. 354248) for the first three passages. The 857933-349-R-J2-PDC line was cultured in 6C/Colon 1B media, which includes advanced DMEM/F-12 (Thermo Fisher Scientific, cat. 12634028), 10 mM HEPES (Thermo Fisher Scientific, cat. 15630080), 1X GlutaMAX supplement (Thermo Fisher Scientific, cat. 35050061), 0.1 mg/mL primocin (InvivoGen, cat. ant-pm-2), 10% defined fetal bovine serum, heat inactivated (HyClone Laboratories Inc., cat. SH30070.03HI), 50% L-WRN conditioned media (ATCC, cat. CRL-3276), 1.25 mM N-Acetyl-L-cysteine (Sigma-Aldrich, cat. A9165), 10 mM nicotinamide (Sigma-Aldrich, cat. N0636), 1X B-27 supplement (Thermo Fisher Scientific, cat. 17504044), 1X N-2 supplement (Thermo Fisher Scientific, cat. 17502048), 10 microM Y-27632 dihydrochloride (Tocris Bioscience, cat. 1254), and 50 ng/mL human EGF recombinant protein (Thermo Fisher Scientific, cat. PHG0311). The 485176-168-R4-J1-PDC line was cultured in Panc media, which includes all 6C/Colon 1B media components plus 100 ng/mL human FGF-10 (Thermo Fisher Scientific, cat. 100-26), 500 nM SB-431542 (Selleckchem, cat. S1067), and gastrin (Tocris, cat. 3006).
[…]

[1] = curve of first compound, second compound 0.0316 µM
[2] = curve of first compound, second compound 0.1 µM
[3] = curve of first compound, second compound 0.316 µM
[4] = curve of first compound, second compound 1 µM
[5] = curve of first compound, second compound 3.16 µM
[6] = curve of first compound, second compound 10 µM
[7] = second compound 0.0316 µM, first compound 0.0316 µM
[8] = second compound 0.0316 µM, first compound 0.1 µM
[9] = second compound 0.0316 µM, first compound 0.316 µM
[10] = second compound 0.0316 µM, first compound 1 µM
[11] = second compound 0.0316 µM, first compound 3.16 µM
[12] = second compound 0.0316 µM, first compound 10 µM
[13] = second compound 0.1 µM, first compound 0.0316 µM
[14] = second compound 0.1 µM, first compound 0.1 µM
[15] = second compound 0.1 µM, first compound 0.316 µM
[16] = second compound 0.1 µM, first compound 1 µM
[17] = second compound 0.1 µM, first compound 3.16 µM
[18] = second compound 0.1 µM, first compound 10 µM
[19] = second compound 0.316 µM, first compound 0.0316 µM
[20] = second compound 0.316 µM, first compound 0.1 µM
[21] = second compound 0.316 µM, first compound 0.316 µM
[22] = second compound 0.316 µM, first compound 1 µM
[23] = second compound 0.316 µM, first compound 3.16 µM
[24] = second compound 0.316 µM, first compound 10 µM
[25] = second compound 1 µM, first compound 0.0316 µM
[26] = second compound 1 µM, first compound 0.1 µM
[27] = second compound 1 µM, first compound 0.316 µM
[28] = second compound 1 µM, first compound 1 µM
[29] = second compound 1 µM, first compound 3.16 µM
[30] = second compound 1 µM, first compound 10 µM
[31] = second compound 3.16 µM, first compound 0.0316 µM
[32] = second compound 3.16 µM, first compound 0.1 µM
[33] = second compound 3.16 µM, first compound 0.316 µM
[34] = second compound 3.16 µM, first compound 1 µM
[35] = second compound 3.16 µM, first compound 3.16 µM
[36] = second compound 3.16 µM, first compound 10 µM
[37] = second compound 10 µM, first compound 0.0316 µM
[38] = second compound 10 µM, first compound 0.1 µM
[39] = second compound 10 µM, first compound 0.316 µM
[40] = second compound 10 µM, first compound 1 µM
[41] = second compound 10 µM, first compound 3.16 µM
[42] = second compound 10 µM, first compound 10 µM
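Further: spheroids exposed to compounds for seven days.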

Compound CC1COCCN1c1cc(C2(O)CC3CCC(C2)O3)c2cnn(-c3ccn[nH]3)c2n1 (stereo unspecified) + Cc1cnc(CNC(=O)c2c(=O)c3ccc(N4CCCN(C)CC4)nc3n3c2sc2ccccc23)cn1 has an IC50 [1] of 33.3 nM, an IC50 [2] of under 31.6 nM and an IC50 [3] of under 31.6 nM. The IC50 [4] was under 31.6 nM, the IC50 [5] was under 31.6 nM and the IC50 [6] was under 31.6 nM. It also gave a viability, T/C [7] of 51.9%, a viability, T/C [8] of 39.6% and a viability, T/C [9] of 33.7%. It also gave a viability, T/C [10] of 25.1%, a viability, T/C [11] of 26.4% and a viability, T/C [12] of 12.3%. It also gave a viability, T/C [13] of 43.4%, a viability, T/C [14] of 37.5% and a viability, T/C [15] of 31.1%. For the same compound, the viability, T/C [16] was 32.4%, the viability, T/C [17] was 26.3% and the viability, T/C [18] was 10.8%. It also gave a viability, T/C [19] of 40.6%, a viability, T/C [20] of 37.8% and a viability, T/C [21] of 31%. For the same compound, the viability, T/C [22] was 31.9%, the viability, T/C [23] was 23.6% and the viability, T/C [24] was 10.8%. It also gave a viability, T/C [25] of 39.2%, a viability, T/C [26] of 42.2% and a viability, T/C [27] of 31.2%. The viability, T/C [28] was 26.7%, the viability, T/C [29] was 18.1% and the viability, T/C [30] was 8.33%. The viability, T/C [31] was 42.2%, the viability, T/C [32] was 35.7% and the viability, T/C [33] was 29.5%. The viability, T/C [34] was 27.2%, the viability, T/C [35] was 16.4% and the viability, T/C [36] was 8.63%. For the same compound, the viability, T/C [37] was 27.5%, the viability, T/C [38] was 20.4% and the viability, T/C [39] was 23.7%. For the same compound, the viability, T/C [40] was 19.4%, the viability, T/C [41] was 6.65% and the viability, T/C [42] was 0.55%.
With O=C(c1cc(Cc2n[nH]c(=O)c3ccccc23)ccc1F)N1CCN(C(=O)C2CC2)CC1 the viability, T/C (compound 0.0316 µM) was 104% and 98.6% and 94.7%, the viability, T/C (compound 0.1 µM) was 93.9% and 91.4% and 99.2% and the viability, T/C (compound 0.316 µM) was 113% and 98.2% and 86.2%. The viability, T/C (compound 1 µM) was 93.1% and 97.6% and 91%, the viability, T/C (compound 3.16 µM) was 101% and 72.5% and 91.1% and the viability, T/C (compound 10 µM) was 79.3% and 69.8% and 82.3%. For the same compound, the IC50 (curve of compound) was over 10000 nM.
With CC1COCCN1c1cc(-c2ccnn2C)c2ccnc(-c3ccn[nH]3)c2n1 (stereo unspecified) + CN(C)c1ccc(Nc2c3ccc(NC(=O)CCN4CCCC4)cc3nc3cc(NC(=O)CCN4CCCC4)ccc23)cc1 the IC50 [1] was 72.2 nM, the IC50 [2] was 89.1 nM and the IC50 [3] was 131 nM. For the same compound, the IC50 [4] was 111 nM, the IC50 [5] was 88.3 nM and the IC50 [6] was 113 nM. For the same compound, the viability, T/C [7] was 69.7%, the viability, T/C [8] was 41.9% and the viability, T/C [9] was 35.4%. The viability, T/C [10] was 24.4%, the viability, T/C [11] was 29.6% and the viability, T/C [12] was 32.9%. It also gave a viability, T/C [13] of 67.6%, a viability, T/C [14] of 48% and a viability, T/C [15] of 27.2%. The viability, T/C [16] was 24.9%, the viability, T/C [17] was 30.9% and the viability, T/C [18] was 31.9%. It also gave a viability, T/C [19] of 79.2%, a viability, T/C [20] of 56.4% and a viability, T/C [21] of 26.1%. The viability, T/C [22] was 23.6%, the viability, T/C [23] was 33.6% and the viability, T/C [24] was 32.3%. It also gave a viability, T/C [25] of 78.1%, a viability, T/C [26] of 52% and a viability, T/C [27] of 24.3%. It also gave a viability, T/C [28] of 28.8%, a viability, T/C [29] of 34.2% and a viability, T/C [30] of 30.6%. It also gave a viability, T/C [31] of 91.4%, a viability, T/C [32] of 44.7% and a viability, T/C [33] of 30.9%. The viability, T/C [34] was 32.5%, the viability, T/C [35] was 30.8% and the viability, T/C [36] was 24.6%. The viability, T/C [37] was 79.6%, the viability, T/C [38] was 49% and the viability, T/C [39] was 43.1%. The viability, T/C [40] was 30.6%, the viability, T/C [41] was 28.5% and the viability, T/C [42] was 31.7%.
